# How the values were obtained:
# KAT8 = target: T1, KAT8 (Homo sapiens, UniProt Q9H7Z6); test: Radioactive KAT8 inhibition assay; type: biochemical; settings: read-out: IC50 KAT8 (5 nM); enzyme 5 nM; 2-fold serial dilution from 200 μM; NI = no inhibition at 200 μM; mean ± SD of three independent experiments
# T1 construct: using the previously purified KAT8 (173–458, 5 nM); 6xHis tag with TEV protease cleavage site (N, cleaved yes); made in house; host or cells: E. coli BL21(DE3)
# T1 sequence (Q9H7Z6 173-458): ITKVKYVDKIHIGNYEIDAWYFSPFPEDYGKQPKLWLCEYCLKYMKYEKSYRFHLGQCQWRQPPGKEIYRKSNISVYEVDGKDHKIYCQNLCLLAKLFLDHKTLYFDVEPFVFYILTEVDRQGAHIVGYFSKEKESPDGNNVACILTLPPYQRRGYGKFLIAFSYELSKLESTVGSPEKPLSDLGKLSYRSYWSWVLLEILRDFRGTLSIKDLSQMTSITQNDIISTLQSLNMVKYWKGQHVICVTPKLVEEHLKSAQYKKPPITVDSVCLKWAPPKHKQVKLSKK
# Procedure: Purified KAT8 was incubated with the relevant inhibitor (1% DMSO final) in a 2-fold serial dilution starting at 200 μM for 20 min at rt. Then, [^3H]Ac-CoA and biotinylated peptide were added to a total assay volume of 50 μL and the reaction mixture was incubated at rt for 4 h. The reaction was stopped, and the mixture was transferred to a 96-well streptavidin scintillant coated FlashPlate (Perkin Elmer) and incubated for 60 min at rt. The FlashPlate was washed with 0.1% Tween-20, and the liquid scintillation counting (MicroBeta Microplate Counter, Perkin Elmer) was employed to measure the radioactive signal. Experiments were performed in biological triplicates. Signal reduction compared to control was plotted (as inhibition percentage) as a function of compound concentration and fitted by nonlinear regression (GraphPad Prism 8.0) finally yielding the IC50 values.
# KAT3B = target: T2, KAT3B (Homo sapiens, UniProt Q09472); test: HotSpot KAT assay, KAT3B; type: biochemical; settings: read-out: IC50 KAT3B (1 nM); enzyme 1 nM; NI = no inhibition at 200 μM; mean ± SD of three independent experiments
# T2 construct: KAT3B (aa 1284–1672, 1 nM); purchased Reaction Biology Corporation
# T2 sequence (Q09472 1284-1672): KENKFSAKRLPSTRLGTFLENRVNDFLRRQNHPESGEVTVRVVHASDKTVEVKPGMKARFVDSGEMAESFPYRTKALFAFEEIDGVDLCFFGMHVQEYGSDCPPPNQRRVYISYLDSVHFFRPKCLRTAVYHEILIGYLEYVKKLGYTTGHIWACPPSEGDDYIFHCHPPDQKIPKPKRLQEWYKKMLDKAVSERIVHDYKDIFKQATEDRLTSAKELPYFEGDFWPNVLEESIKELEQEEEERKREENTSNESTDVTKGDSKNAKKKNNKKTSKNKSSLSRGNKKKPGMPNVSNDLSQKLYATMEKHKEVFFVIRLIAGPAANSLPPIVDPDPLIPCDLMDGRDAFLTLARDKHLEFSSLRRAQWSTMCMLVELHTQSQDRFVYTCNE
# Procedure: The effects of the compounds on other KATs were determined using the HotSpot KAT assay (Reaction Biology Corporation, Malvern, PA, USA) according to the supplier’s procedure. […] Histone peptide acetylation was assessed by liquid scintillation counting using a Tri-Carb 2800TR Liquid Scintillation Analyzer (Perkin Elmer). Experiments were performed in biological triplicates. Signal reduction compared to control was plotted (as inhibition percentage) as a function of compound concentration. In cases in which an IC50 was calculated, the values were fitted by nonlinear regression (GraphPad Prism 8.0).
# KAT2B = target: T3, KAT2B (Homo sapiens, UniProt Q92831); test: HotSpot KAT assay, KAT2B; type: biochemical; settings: enzyme 25 nM; NI = no inhibition at 200 μM; mean ± SD of three independent experiments
# T3 construct: KAT2B (aa 492–658, 25 nM); purchased Reaction Biology Corporation
# T3 sequence (Q92831 492-658): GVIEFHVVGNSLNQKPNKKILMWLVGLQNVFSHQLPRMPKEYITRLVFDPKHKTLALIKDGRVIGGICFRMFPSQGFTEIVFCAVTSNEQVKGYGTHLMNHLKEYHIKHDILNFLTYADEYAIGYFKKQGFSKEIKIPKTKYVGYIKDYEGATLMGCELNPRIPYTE
# Procedure: The effects of the compounds on other KATs were determined using the HotSpot KAT assay (Reaction Biology Corporation, Malvern, PA, USA) according to the supplier’s procedure. The recombinant catalytic domains of human KAT2A (aa 323–837, 15 nM), KAT2B (aa 492–658, 25 nM), KAT3B (aa 1284–1672, 1 nM), KAT6A (aa 488–778, 10 nM), KAT6B (aa 657–1069, 10 nM), and full length human KAT5 (25 nM) and KAT7 (25 nM) were used. Each enzyme was incubated with the relevant histone peptide [H3 peptide for KAT2A, KAT2B, KAT3B, KAT6A, and KAT7 (2.5–5 μM, depending on the KAT isoform); H2A peptide for KAT5 (1.25 μM); H4 peptide for KAT6B (2.5 μM)] as a substrate and radio-isotope-labeled [^3H]Acetyl-CoA (0.2–1.5 μM, depending on the KAT isoform) as an acetyl donor in the assay buffer [50 mM Tris–HCl (pH 8.0), 50 mM NaCl, 0.1 mM EDTA, 1 mM DTT, 0.1 mM PMSF, 1% DMSO] for 1 h at 30 °C in the presence or absence of various compounds (1% DMSO final) titrated in a 2-fold serial dilution starting at 200 μM. Histone peptide acetylation was assessed by liquid scintillation counting using a Tri-Carb 2800TR Liquid Scintillation Analyzer (Perkin Elmer). Experiments were performed in biological triplicates. Signal reduction compared to control was plotted (as inhibition percentage) as a function of compound concentration. In cases in which an IC50 was calculated, the values were fitted by nonlinear regression (GraphPad Prism 8.0).
# U937 cells [1] = tested on: U937 cells; parameters: method as in PMID 28202522; settings: cited from earlier work
# HCT116 cells = test: MTT cell proliferation assay, HCT116; type: cell-based, human; settings: 72 h treatment, MTT
# Excerpt: (§1) Human commercially available AML U937, breast cancer MCF7, lung adenocarcinoma NCI-H460, H1299 and A-549, glioblastoma U251, B lymphocyte AHH1 cell lines were maintained in compete 10% foetal bovine serum (FBS,) RPMI 1640 (Euroclone, Milan, IT) medium. Human commercially available colon cancer HCT116 and HT29 lines and cervix adenocarcinoma HeLa cells were maintained in compete 10% FBS Dulbecco’s Modified Eagle Medium (DMEM) high glucose medium (Euroclone). L-Glutamine, FBS, and penicillin streptomycin mixture added to medium were obtained from Euroclone. All cell lines were cultured at 37 °C in a humidified atmosphere of 5% CO2:95% air and were tested for mycoplasma contamination routinely by RT-PCR.
# (§2) For analysis of cell proliferation, cells were plated in sextuplicate on 96-well plates in complete media. After 24 h, cells were exposed to different drugs for 72 h. The inhibitory effect of different drugs was assessed by MTT (Sigma, St. Louis, MO, USA) colorimetric assays as previously reported.[67] Aqueous DMSO (0.5% v/v) was used as a control (untreated). The results are reported as “viability of drug-treated cells/viability of untreated cells” × 100 and represent the average ±SD of three independent experiments. IC50 values were using fitted by nonlinear regression using GraphPad Prism 8.0.
# H1299 cells = test: MTT cell proliferation assay, H1299; type: cell-based, human; settings: 72 h treatment, MTT
# Excerpt: as §1, §2
# A549 cells = test: MTT cell proliferation assay, A549; type: cell-based, human; settings: 72 h treatment, MTT
# Excerpt: as §1, §2
# U937 cells [2] = test: MTT cell proliferation assay, U937; type: cell-based, human; settings: 72 h treatment, MTT
# Excerpt: as §1, §2
# AHH-1 cells = test: Proliferation of noncancer B lymphocyte AHH-1 cells; type: cell-based, human; settings: 72 h
# Excerpt: as §1, §2
# [3] = tested on: human intestinal epithelial cells (InEpC); test: Proliferation of human intestinal epithelial cells (InEpC); type: cell-based; settings: 25, 50, 100, 200 μM, 72 h
# Procedure: as §2
# [4] = tested on: normal human lung fibroblasts (NHLF); test: Proliferation of normal human lung fibroblasts (NHLF); type: cell-based; settings: 25, 50, 100, 200 μM, 72 h
# Procedure: as §2
IC50 (KAT8) [µM],IC50 (KAT3B) [µM],IC50 (KAT2B) [µM],"IC50 HCT116, 72 h (HCT116 cells)","IC50 H1299, 72 h (H1299 cells)","IC50 A549, 72 h (A549 cells)","IC50 U937, 72 h (U937 cells [2])",SMILES,antiproliferative activity in U937 and other AML cell lines (U937 cells [1]),"effect on proliferation of AHH-1 cells (AHH-1 cells; 25, 50, 100, 200 μM)","IC50 (AHH-1 cells; Homo sapiens, AHH-1, NI = no inhibition at 200 µM) [µM]",effect on proliferation of InEpC [3],effect on proliferation of NHLF [4]
20.3 ± 1.3,22.3 ± 1.1,> 200,,,,,"CCCCCCCc1ccc(CCc2cccc(O)c2C(=O)O)cc1 [III (MG149), reference compound]",exerted antiproliferative activity,,,,
> 200,> 200,> 200,No inhibition at 100 µM,No inhibition at 100 µM,No inhibition at 100 µM,No inhibition at 100 µM,"CC1=NN(c2ccc(C(=O)NCc3ccccc3)cc2)C(=O)/C1=C\c1ccc[nH]1 [Compound 39, (Z)-4-(4-((1H-Pyrrol-2-yl)methylene)-3-methyl-5-oxo-4,5-dihydro-1H-pyrazol-1-yl)-N-benzylbenzamide]",,did not significantly affect the proliferation,> 200,did not significantly affect the proliferation,did not significantly affect the proliferation
